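Five concentrations, 48 hours, 96-well plates. The concentration for 50% growth inhibition is given as GI50.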 Active and inactive are the calls of the source. No stated cut-off is given here; in the data, active = GI50 up to about 1.1 µM and inactive = higher.
How the values were obtained:
Experiment in all cases: growth of human tumour cells (NCI), 48 h
HOP-92 = system: HOP-92
NCI-H460 = system: NCI-H460
NCI-H226 = system: NCI-H226
SR = system: SR
OVCAR-5 = system: OVCAR-5
786-0 = system: 786-0
SF-268 = system: SF-268
MOLT-4 = system: MOLT-4
EKVX = system: EKVX
M14 = system: M14
RXF 393 = system: RXF 393
LOX IMVI = system: LOX IMVI
HL-60 = system: HL-60
ACHN = system: ACHN
COLO 205 = system: COLO 205
Hs-578T = system: Hs-578T
KM12 = system: KM12
HCT-15 = system: HCT-15
UO-31 = system: UO-31
MDA-MB-231 = system: MDA-MB-231
PC-3 = system: PC-3
A498 = system: A498
OVCAR-4 = system: OVCAR-4
HOP-62 = system: HOP-62
MDA-N = system: MDA-N
NCI/ADR-RES = system: NCI/ADR-RES
MDA-MB-435 = system: MDA-MB-435
SK-MEL-5 = system: SK-MEL-5
SF-539 = system: SF-539
BT-549 = system: BT-549
Malme-3M = system: Malme-3M
CAKI-1 = system: CAKI-1
SK-OV-3 = system: SK-OV-3
OVCAR-8 = system: OVCAR-8
HCT-116 = system: HCT-116
TK-10 = system: TK-10
UACC-62 = system: UACC-62
U-251 = system: U-251
IGROV-1 = system: IGROV-1
K562 = system: K562
SNB-19 = system: SNB-19
SF-295 = system: SF-295
HT-29 = system: HT-29
SW-620 = system: SW-620
SK-MEL-2 = system: SK-MEL-2
NCI-H23 = system: NCI-H23
UACC-257 = system: UACC-257
RPMI-8226 = system: RPMI-8226
CCRF-CEM = system: CCRF-CEM
NCI-H522 = system: NCI-H522
OVCAR-3 = system: OVCAR-3
MCF7 = system: MCF7
T47D = system: T47D
A549 = system: A549
HCC 2998 = system: HCC 2998
DU-145 = system: DU-145
SK-MEL-28 = system: SK-MEL-28
SNB-75 = system: SNB-75
SN12C = system: SN12C

For CC1CC(=O)Nc2nc3ccccc3n21 (stereo not given), the GI50 (HOP-92) was > 100 µM (inactive), the GI50 (NCI-H460) was > 100 µM (inactive) and the GI50 (NCI-H226) was > 100 µM (inactive). The GI50 (SR) was > 100 µM (inactive), the GI50 (OVCAR-5) was > 100 µM (inactive) and the GI50 (786-0) was > 100 µM (inactive). For the same compound, the GI50 (SF-268) was > 100 µM (inactive), the GI50 (MOLT-4) was > 100 µM (inactive) and the GI50 (EKVX) was 0.953 µM (active). For the same compound, the GI50 (M14) was > 100 µM (inactive), the GI50 (RXF 393) was > 100 µM (inactive) and the GI50 (LOX IMVI) was > 100 µM (inactive). For the same compound, the GI50 (HL-60) was > 100 µM (inactive), the GI50 (ACHN) was > 100 µM (inactive) and the GI50 (COLO 205) was > 100 µM (inactive). For the same compound, the GI50 (Hs-578T) was > 100 µM (inactive), the GI50 (KM12) was > 100 µM (inactive) and the GI50 (HCT-15) was greater than 100 µM. For the same compound, the GI50 (UO-31) was > 100 µM (inactive), the GI50 (MDA-MB-231) was > 100 µM (inactive) and the GI50 (PC-3) was > 100 µM (inactive). For the same compound, the GI50 (A498) was > 100 µM (inactive), the GI50 (OVCAR-4) was > 100 µM (inactive) and the GI50 (HOP-62) was > 100 µM (inactive). The GI50 (MDA-N) was > 100 µM (inactive), the GI50 (NCI/ADR-RES) was > 100 µM (inactive) and the GI50 (MDA-MB-435) was > 100 µM (inactive). For the same compound, the GI50 (SK-MEL-5) was > 100 µM (inactive), the GI50 (SF-539) was > 100 µM (inactive) and the GI50 (BT-549) was > 100 µM (inactive). The GI50 (Malme-3M) was > 100 µM (inactive), the GI50 (CAKI-1) was > 100 µM (inactive) and the GI50 (SK-OV-3) was > 100 µM (inactive). The GI50 (OVCAR-8) was > 100 µM (inactive), the GI50 (HCT-116) was > 100 µM (inactive) and the GI50 (TK-10) was > 100 µM (inactive). For the same compound, the GI50 (UACC-62) was > 100 µM (inactive), the GI50 (U-251) was > 100 µM (inactive) and the GI50 (IGROV-1) was > 100 µM (inactive). The GI50 (K562) was > 100 µM (inactive), the GI50 (SNB-19) was > 100 µM (inactive) and the GI50 (SF-295) was > 100 µM (inactive). The GI50 (HT-29) was > 100 µM (inactive), the GI50 (SW-620) was > 100 µM (inactive) and the GI50 (SK-MEL-2) was > 100 µM (inactive). The GI50 (NCI-H23) was > 100 µM (inactive), the GI50 (UACC-257) was > 100 µM (inactive) and the GI50 (RPMI-8226) was > 100 µM (inactive). The GI50 (CCRF-CEM) was > 100 µM (inactive), the GI50 (NCI-H522) was > 100 µM (inactive) and the GI50 (OVCAR-3) was > 100 µM (inactive). For the same compound, the GI50 (MCF7) was > 100 µM (inactive), the GI50 (T47D) was > 100 µM (inactive) and the GI50 (A549) was > 100 µM (inactive).

Nc1sccc1S(=O)(=O)c1ccsc1N was tested, and the GI50 (HOP-92) was > 100 µM (inactive), the GI50 (NCI-H460) was > 100 µM (inactive) and the GI50 (NCI-H226) was > 100 µM (inactive). The GI50 (OVCAR-5) was > 100 µM (inactive), the GI50 (786-0) was > 100 µM (inactive) and the GI50 (SF-268) was > 100 µM (inactive). The GI50 (MOLT-4) was > 100 µM (inactive), the GI50 (EKVX) was > 100 µM (inactive) and the GI50 (M14) was > 100 µM (inactive). For the same compound, the GI50 (LOX IMVI) was > 100 µM (inactive), the GI50 (HCC 2998) was > 100 µM (inactive) and the GI50 (ACHN) was > 100 µM (inactive). The GI50 (COLO 205) was > 100 µM (inactive), the GI50 (Hs-578T) was > 100 µM (inactive) and the GI50 (KM12) was > 100 µM (inactive). The GI50 (HCT-15) was greater than 100 µM, the GI50 (UO-31) was > 100 µM (inactive) and the GI50 (MDA-MB-231) was > 100 µM (inactive). For the same compound, the GI50 (PC-3) was > 100 µM (inactive), the GI50 (A498) was > 100 µM (inactive) and the GI50 (OVCAR-4) was > 100 µM (inactive). For the same compound, the GI50 (HOP-62) was > 100 µM (inactive), the GI50 (MDA-N) was > 100 µM (inactive) and the GI50 (NCI/ADR-RES) was > 100 µM (inactive). The GI50 (MDA-MB-435) was > 100 µM (inactive), the GI50 (SK-MEL-5) was > 100 µM (inactive) and the GI50 (SF-539) was > 100 µM (inactive). For the same compound, the GI50 (BT-549) was > 100 µM (inactive), the GI50 (Malme-3M) was > 100 µM (inactive) and the GI50 (CAKI-1) was > 100 µM (inactive). For the same compound, the GI50 (SK-OV-3) was > 100 µM (inactive), the GI50 (OVCAR-8) was > 100 µM (inactive) and the GI50 (DU-145) was > 100 µM (inactive). For the same compound, the GI50 (HCT-116) was > 100 µM (inactive), the GI50 (TK-10) was > 100 µM (inactive) and the GI50 (UACC-62) was > 100 µM (inactive). The GI50 (U-251) was > 100 µM (inactive), the GI50 (SK-MEL-28) was > 100 µM (inactive) and the GI50 (IGROV-1) was > 100 µM (inactive). For the same compound, the GI50 (SNB-19) was > 100 µM (inactive), the GI50 (SF-295) was > 100 µM (inactive) and the GI50 (HT-29) was > 100 µM (inactive). The GI50 (SW-620) was > 100 µM (inactive), the GI50 (SNB-75) was > 100 µM (inactive) and the GI50 (SK-MEL-2) was > 100 µM (inactive). For the same compound, the GI50 (NCI-H23) was > 100 µM (inactive), the GI50 (UACC-257) was > 100 µM (inactive) and the GI50 (RPMI-8226) was > 100 µM (inactive). The GI50 (NCI-H522) was > 100 µM (inactive), the GI50 (SN12C) was > 100 µM (inactive) and the GI50 (OVCAR-3) was > 100 µM (inactive). For the same compound, the GI50 (MCF7) was > 100 µM (inactive), the GI50 (T47D) was > 100 µM (inactive) and the GI50 (A549) was > 100 µM (inactive).

CCN(CC)c1ccc2cc(C(N)=O)c(=N)oc2c1 was tested, and the GI50 (HOP-92) was 24 µM (inactive), the GI50 (NCI-H460) was 27 µM (inactive) and the GI50 (NCI-H226) was 19.7 µM (inactive). For the same compound, the GI50 (SR) was 14.6 µM (inactive), the GI50 (OVCAR-5) was 51.5 µM (inactive) and the GI50 (786-0) was 30.1 µM (inactive). The GI50 (SF-268) was 42.3 µM (inactive), the GI50 (MOLT-4) was 69.2 µM (inactive) and the GI50 (M14) was 34.4 µM (inactive). The GI50 (RXF 393) was 55 µM (inactive), the GI50 (LOX IMVI) was 29.5 µM (inactive) and the GI50 (HL-60) was 36.5 µM (inactive). For the same compound, the GI50 (HCC 2998) was 5.36 µM (inactive), the GI50 (ACHN) was 32.7 µM (inactive) and the GI50 (COLO 205) was 35.2 µM (inactive). For the same compound, the GI50 (Hs-578T) was 16.3 µM (inactive), the GI50 (KM12) was 31 µM (inactive) and the GI50 (HCT-15) was 35 µM. The GI50 (MDA-MB-231) was 32.1 µM (inactive), the GI50 (PC-3) was 26.3 µM (inactive) and the GI50 (A498) was 38.2 µM (inactive). The GI50 (OVCAR-4) was 23.6 µM (inactive), the GI50 (HOP-62) was 38.6 µM (inactive) and the GI50 (MDA-N) was 38.2 µM (inactive). For the same compound, the GI50 (NCI/ADR-RES) was 53.1 µM (inactive), the GI50 (MDA-MB-435) was 30.9 µM (inactive) and the GI50 (SK-MEL-5) was 32.5 µM (inactive). The GI50 (SF-539) was 4.15 µM (inactive), the GI50 (BT-549) was 52.5 µM (inactive) and the GI50 (CAKI-1) was 35.4 µM (inactive). The GI50 (SK-OV-3) was 36.6 µM (inactive), the GI50 (OVCAR-8) was 50 µM (inactive) and the GI50 (DU-145) was 40.9 µM (inactive). For the same compound, the GI50 (HCT-116) was 35.1 µM (inactive), the GI50 (UACC-62) was 30.8 µM (inactive) and the GI50 (U-251) was 98.6 µM (inactive). The GI50 (SK-MEL-28) was 31.3 µM (inactive), the GI50 (IGROV-1) was 21.1 µM (inactive) and the GI50 (K562) was > 100 µM (inactive). For the same compound, the GI50 (SNB-19) was 42.1 µM (inactive), the GI50 (HT-29) was 51.5 µM (inactive) and the GI50 (SW-620) was 47.4 µM (inactive). The GI50 (SNB-75) was 26.5 µM (inactive), the GI50 (SK-MEL-2) was 21.3 µM (inactive) and the GI50 (NCI-H23) was 42.8 µM (inactive). The GI50 (UACC-257) was > 100 µM (inactive), the GI50 (RPMI-8226) was 96.6 µM (inactive) and the GI50 (CCRF-CEM) was 31.2 µM (inactive). For the same compound, the GI50 (SN12C) was 31.3 µM (inactive), the GI50 (OVCAR-3) was 31.6 µM (inactive) and the GI50 (T47D) was 23.7 µM (inactive). For the same compound, the GI50 (A549) was 37.4 µM (inactive).
